These compounds were tested on LTB4 release from neutrophils (assay: A23187 induced LTB4 release). Conditions: Neutrophil; neutrophils from healthy human donors, test drug 1 hour at 37° C., 0.3 μg/ml A23187 10 min, LTB4 ELISA; range over the group of compounds; read-out: IC50, percent inhibition of LTB4 release.
Format: cell-based
Description: The compounds of the present invention are tested in one or more of the assays described herein. Standard assays are used to evaluate activity of compounds in present invention on inflammatory cells. Attenuation of agonist-induced release of lipid mediator of neutrophil chemotaxis, leukotriene B4 (LTB4), is used to evaluate inhibitory effect on neutrophils.
Venous blood was collected from healthy human donors using heparin as an anti-coagulant. Neutrophils were isolated from freshly drawn blood after dextran sedimentation and ficoll separation (Eur J. Biochem. 169, 175, 1987). 180 μl of the of neutrophil suspension (0.2×10^6 cells/ml) was taken and added 19 μL of Hank's Buffer salt solution along with 1 μL of the test drug (200 times concentrated) in a 24 well plate and incubated at 37° C. for 1 hour. 3 minutes before the end of test compound incubation, 0.25 mM Ca^++/Mg^++ were added. Then, 0.3 μg/ml A23187 (Sigma Chem, USA) was added and incubated for further 10 min at 37° C. The reaction was stopped by adding 80 μL of cold methanol and centrifuged to remove cell debris (J Pharmacol Exp Ther. 297:267, 2001). The samples were analysed for LTB4 release using LTB4 ELISA kits (Assay Design Inc., USA). The amount of LTB4 released was quantified and percent inhibition of LTB4 release was calculated with respect to the difference between the A23187 stimulated and negative control cells, to compute IC50 values.
For `CCCCCCCCCCCCOCC12OC(CNC(=O)Cc3ccc(F)cc3)C(O)C1OC(C)(C)O2` [Compound 69, 1-O-Dodecyl-2,3-O-isopropylidene-6-deoxy-6-{[(4-fluorophenyl)acetyl}amino]-α-L-sorbofuranoside], the IC50 was no less than 1.3 µM. `CCCCCCCCCCCCOCC12OC(CNC(=O)c3ccncc3)C(O)C1OC(C)(C)O2` [Compound 78, 1-O-Dodecyl-2,3-O-isopropylidene-6-deoxy-6-{[(pyridin-4-yl)-carbonyl]-amino}-α-L-sorbofuranoside] was tested, and the IC50 was no less than 1.3 µM. In the case of `CCCCCCCCCCCCOCC12OC(CNC(=O)Cc3ccc(Cl)c(Cl)c3)C(O)C1OC(C)(C)O2` [Compound 94, 1-O-Dodecyl-2,3-O-isopropylidene-6-deoxy-6-{[(3,4-dichlorophenyl)acetyl]amino}-α-L-sorbofuranoside], the IC50 is reported as no less than 1.3 µM. Work on `CCCCCCCCCCCCOCC12OC(CNC(=O)Cc3ccc(OC(F)(F)F)cc3)C(O)C1OC(C)(C)O2` [Compound 106, 1-O-Dodecyl-2,3-O-isopropylidene-6-deoxy-6-{[(4-trifluoromethoxyphenyl)acetyl]amino}-α-L-sorbofuranoside] yielded an IC50 of no less than 1.3 µM. `CCCCCCCOCC12OC(C)C(C)(OC(=O)NS(=O)(=O)c3ccc(Cl)cc3)C1OC(C)(C)O2` [Compound 116, (4ξ)-1-O-Heptyl-2,3-O-isopropylidene-4-C-methyl-4-O-[{[(4-chlorophenyl)sulphonyl]amino}-carbonyl]-6-deoxy-α-L-erythro-hex-2-ulofuranoside] gave an IC50 of no less than 1.3 µM. `CCCCCCCOCC12OC(C)C(C)(OC(=O)NS(=O)(=O)c3ccccc3)C1OC(C)(C)O2` [Compound 117, (4ξ)-1-O-Heptyl-2,3-O-isopropylidene-4-C-methyl-4-O-[{[phenylsulphonyl]amino}carbonyl]-6-deoxy-α-L-erythro-hex-2-ulofuranoside] gave an IC50 of no less than 1.3 µM. With `CCCCCCCOCC12OC(C)C(C)(OC(=O)NS(=O)(=O)c3ccc(F)cc3)C1OC(C)(C)O2` [Compound 118, (4ξ)-1-O-Heptyl-2,3-O-isopropylidene-4-C-methyl-4-O-[{[(4-fluorophenyl)sulphonyl]amino}-carbonyl]-6-deoxy-α-L-erythro-hex-2-ulofuranoside] the IC50 was no less than 1.3 µM.

From patent US20100113371A9, “Derivatives Of Pentose Monosaccharides As Anti-Inflammatory Compounds” (RANBAXY LABORATORIES LIMITED INC., priority 2004, published 2010)
